The values that follow come from patent US6416780B1 (Galen (Chemicals) Limited, priority 1997, dated 2002).

Read-outs that look alike come from different tables or passages of the source.

Data set [1] is described as follows: In vitro release from Example 3 rings into 0.9% saline over 30 days. Format: physicochemical. Conditions: 30 day monitoring period.
The conditions of data set [2]: for In vitro release into 0.9% saline (as total testosterone): core loading 10% w/w testosterone; for sink conditions in 0.9% saline: rings of Examples 1 and 2, 250 ml, 37° C.
Protocol: The rings were tested in vitro at a constant temperature of 37° C. for their release characteristics in a sufficient volume (250 ml) of each of the following media: 0.9% (w/v) saline and 1.0% (w/v) aqueous benzalkonium chloride (BKC).
Thus, each ring was suspended by a thread in an individual enclosed flask containing the dissolution medium, maintained at a constant temperature of 37° C. The contents of the flask were gently agitated in order to prevent the occurrence of a hydrostatic layer on the surface of the ring. After 24 hours (±30 minutes), the ring was removed and suspended in a flask of fresh dissolution medium of identical volume.
For data set [3] the following is noted: human female, cited from earlier work.
The nature of data set [4]: In vitro release from Example 6 pessary bullets into 0.9% saline. Conditions: following an initial burst phase.
For data set [5] the following is noted: Example 2 rings; 1.0% BKC versus 0.9% saline.
Data set [6] in a line: In vitro release from Example 5 testosterone-17-propionate ring into 0.9% saline over 26 days. The format is physicochemical. Particulars: for In Vitro Release of Testosterone-17-propionate, Release Rate: Example 5 ring core length 90 mm.

For the compound `C[C@]12CC[C@H]3[C@@H](CCC4=CC(=O)CC[C@@]43C)[C@@H]1CC[C@@H]2O` [testosterone], the “in vitro release pattern” value is listed as “substantially zero order pattern” in data set [1] and “substantially zero order release” in data set [4]. Also, the “In vitro release into 0.9% saline (as total testosterone)” value (from here on “In vitro release into 0.9% saline”) in data set [2] (ring core length 30 mm, day 2) amounted to 270 µg/day; in data set [2] (ring core length 30 mm, day 3) it was 232 µg/day; in data set [2] (ring core length 30 mm, day 5) it was 237 µg/day; in data set [2] (ring core length 30 mm, day 8) it was 228 µg/day; in data set [2] (ring core length 30 mm, day 9), 229 µg/day; in data set [2] (ring core length 30 mm, day 10), 226 µg/day. The “In vitro release into 0.9% saline” value in data set [2] (ring core length 30 mm, day 13) is 238 µg/day; in data set [2] (ring core length 30 mm, day 15), 227 µg/day; in data set [2] (ring core length 30 mm, day 16) it was 216 µg/day; in data set [2] (ring core length 30 mm, day 17) it was 224 µg/day; in data set [2] (ring core length 60 mm, day 2), 471 µg/day; in data set [2] (ring core length 60 mm, day 3) it was 401 µg/day. Moreover, the “In vitro release into 0.9% saline” value in data set [2] (ring core length 60 mm, day 5) was 419 µg/day; in data set [2] (ring core length 60 mm, day 8) it was 400 µg/day; in data set [2] (ring core length 60 mm, day 9), 407 µg/day; in data set [2] (ring core length 60 mm, day 10), 406 µg/day; in data set [2] (ring core length 60 mm, day 13), 430 µg/day; in data set [2] (ring core length 60 mm, day 15), 408 µg/day. Besides, the “In vitro release into 0.9% saline” value in data set [2] (ring core length 60 mm, day 16) was determined as 392 µg/day; in data set [2] (ring core length 60 mm, day 17) it was 388 µg/day; in data set [2] (ring core length 90 mm, day 2) it was 696 µg/day; in data set [2] (ring core length 90 mm, day 3), 572 µg/day; in data set [2] (ring core length 90 mm, day 5), 588 µg/day; in data set [2] (ring core length 90 mm, day 8), 592 µg/day. In addition, the “In vitro release into 0.9% saline” value in data set [2] (ring core length 90 mm, day 10) amounted to 581 µg/day; in data set [2] (ring core length 90 mm, day 13), 623 µg/day; in data set [2] (ring core length 90 mm, day 15), 595 µg/day; in data set [2] (ring core length 90 mm, day 16), 584 µg/day; in data set [2] (ring core length 90 mm, day 17), 612 µg/day. Moreover, the “sink conditions in 0.9% saline” value in data set [2] was “‘Sink conditions’ were evident”. In addition, the “testosterone delivered per day” value in data set [3] (matrix (non-rate controlled) transdermal system, per day) is given as “about 1000 μg”. In addition, the “mean circulating plasma testosterone levels” value in data set [3] (matrix transdermal system delivering about 1000 μg per day) was 4 to 6 nM.
On to `CC(=O)O[C@H]1CC[C@H]2[C@@H]3CCC4=CC(=O)CC[C@]4(C)[C@H]3CC[C@]12C` [testosterone-17-acetate], for which, in data set [5], the “in vitro release rates into BKC compared with saline” value is given as “considerably higher than those into saline”. For the same compound, the “sink conditions in 0.9% saline” value in data set [2] was “‘non-sink conditions’ exist in saline”.
As for `CCC(=O)O[C@H]1CC[C@H]2[C@@H]3CCC4=CC(=O)CC[C@]4(C)[C@H]3CC[C@]12C` [testosterone-17-propionate], the “In Vitro Release of Testosterone-17-propionate, Release Rate” value stood at 171 µg/day in data set [6] (0.9% saline, day 2); 328 µg/day in data set [6] (0.9% saline, day 3); 337 µg/day in data set [6] (0.9% saline, day 4); 465 µg/day in data set [6] (0.9% saline, day 5); 457 µg/day in data set [6] (0.9% saline, day 7); 527 µg/day in data set [6] (0.9% saline, day 13). Further, the “In Vitro Release of Testosterone-17-propionate, Release Rate” value in data set [6] (0.9% saline, day 14) worked out at 587 µg/day; in data set [6] (0.9% saline, day 19), 585 µg/day; in data set [6] (0.9% saline, day 20), 663 µg/day; in data set [6] (0.9% saline, day 26) it was 637 µg/day. In addition, the “lag phase of in vitro release” value in data set [6] (Example 5 ring, freshly made, 0.9% saline) stood at 13 days. Also, the “in vitro release pattern” value in data set [6] (Example 5 ring, 0.9% saline, 13 day monitoring after the lag phase) was “substantially zero order pattern”. Besides, the “amounts released compared with testosterone” value in data set [6] (intravaginal rings, high dose applications) is “amounts released are greater”.
